The results in this text go back to patent US11389385B2, “Resorcinol derivatives for their cosmetic use” (L'OREAL, priority 2017, dated 2022).

Where two headings read alike, the source gives them in different places.

One data set relates to normal human melanocytes. Nature of the data set: Depigmenting activity: reduction of melanin production in normal human melanocytes in vitro. The data set is classed as cell-based. As to conditions: Melanocyte, 72 h, 72 hours incubation, maximum concentration tested 200 μM, read-out: IC50 (concentration at which a 50% decrease in melanin synthesis is achieved). As for the experimental part: The measurement of the depigmenting activity (reduction of melanin production) of compounds of formula (I) was performed by assaying normal human melanocytes in vitro as follows.
First, normal human melanocytes are cultured and distributed in a multiwell plate. After 24 hours, the culture medium was replaced with a medium containing the compounds of formula (I) to be evaluated. The cells were incubated 72 hours before measurement of the final optical density, which measures the amount of melanin produced by the melanocytes. A dose effect was performed using a wide concentration range of the compounds evaluated. Thus, by making the concentrations and the melanin measurements correspond, it was possible to determine an IC50 in μM: concentration at which a 50% decrease in melanin synthesis is achieved.
Various test campaigns were conducted and the test results are collated in the tables below.

Data set [1] has as its system coculture of keratinocytes and melanocytes. Nature of the data set: Coculture experiment: melanogenesis-modulating effect and cytotoxicity. The data set is classed as cell-based. Conditions: for IC50: melanin optical density, read-out: IC50 (concentration for which 50% of the melanin synthesis is inhibited). Here is the method:
The melanogenesis-modulating effect of compound D was measured according to the method described in patent FR-A-2734825, and also in the article by R. Schmidt, P. Krien and M. Régnier, Anal. Biochem., 235(2), 113-18, 1996. This test is performed on a coculture of keratinocytes and melanocytes.
For the test compounds, the following were determined: • the cytotoxicity, • the inhibitory activity on melanin synthesis, by estimating the melanin optical density.
The IC50 values (concentration for which 50% of the melanin synthesis is inhibited) were determined.
The test was also performed with the compound 5-[(E)-2-(4-hydroxyphenyl)ethenyl]benzene-1,3-diol described in the prior art patent application JP01038009,

Where [2] appears, read: values marked *: different campaigns each time.
Setting [3] is: coculture of keratinocytes and melanocytes.

Consider `CC(Cc1nccs1)c1ccc(O)cc1O` (stereo not shown) [Compound B, 4-[1-(1,3-thiazol-2-yl)propan-2-yl]benzene-1,3-diol], for which the figures for the IC50 in the data set on normal human melanocytes (melanin by optical density) and with normal human melanocytes (setting [2]) were 5.9 µM and 1.07 µM, respectively.

With `CC(Cc1nc2ccccc2[nH]1)c1ccc(O)cc1O` (stereo not shown) [Compound D, 4-[1-(1H-benzimidazol-2-yl)propan-2-yl]benzene-1,3-diol], the results for the IC50 (in the data set on normal human melanocytes (melanin by optical density); with normal human melanocytes (setting [2]); in data set [1] (setting [3])) were 3.7 µM, 6.7 µM and 1.38 µM, respectively. Moreover, in data set [1], the cytotoxicity result is on record as “non-cytotoxic”.

Turning to `Oc1ccc(/C=C/c2cc(O)cc(O)c2)cc1` [Compound of the prior art, 5-[(E)-2-(4-hydroxyphenyl)ethenyl]benzene-1,3-diol, reference compound], in the data set with normal human melanocytes (melanin by optical density), the IC50 stood at 8.18 µM. Further, in data set [1] (setting [3]), the cytotoxicity entry was “Non-cytotoxic” and the IC50 was determined as 2.77 µM.

Consider `CC(Cc1ncc[nH]1)c1ccc(O)cc1O` (stereo not shown) [Compound A, 4-[1-(1H-imidazol-2-yl)propan-2-yl]benzene-1,3-diol], for which the IC50 in the data set on normal human melanocytes (setting [2]) worked out at 3.7 µM.
